Measurements published in PubChem BioAssay AID463222 (The Scripps Research Institute Molecular Screening Center, 2010).
Activity calls are given as the source filed them. No rule for the calls is given here.

The molecules below were run against Serine/threonine-protein phosphatase 5 (Homo sapiens) (UniProt P53041) (assay: inhibition of PP5 cleaving OMFP – biochemical, fluorescence, single concentration, late-stage follow-up (AID 463222)). Conditions: PP5 OMFP dephosphorylation, at 6.7 µM, stronger effect = higher value.
Sequence of Serine/threonine-protein phosphatase 5 (Homo sapiens) (P53041 whole entry, looked up): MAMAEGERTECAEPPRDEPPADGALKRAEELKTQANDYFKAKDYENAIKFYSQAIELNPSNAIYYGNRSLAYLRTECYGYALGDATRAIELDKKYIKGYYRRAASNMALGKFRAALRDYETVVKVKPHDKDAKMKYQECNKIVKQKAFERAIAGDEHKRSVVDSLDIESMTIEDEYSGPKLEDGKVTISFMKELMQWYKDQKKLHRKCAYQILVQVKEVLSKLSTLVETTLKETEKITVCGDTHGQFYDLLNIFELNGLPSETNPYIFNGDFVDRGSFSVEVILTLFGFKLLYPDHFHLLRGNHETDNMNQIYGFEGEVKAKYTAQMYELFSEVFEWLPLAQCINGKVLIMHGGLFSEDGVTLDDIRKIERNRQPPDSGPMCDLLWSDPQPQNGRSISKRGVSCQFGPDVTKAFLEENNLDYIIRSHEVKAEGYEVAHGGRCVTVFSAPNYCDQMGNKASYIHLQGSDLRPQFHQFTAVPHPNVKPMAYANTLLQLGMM

| SMILES | inhibition |
| --- | --- |
| Oc1ccccc1/C=N/Nc1cc(N2CCCC2)nc(N2CCCC2)n1 | 7.43% (inactive) |
| Cc1ccc(-n2nc(C(=O)O)cc2-c2ccc(Cl)cc2)cc1 | -5.42% (inactive) |
| COc1cnc(-c2ccccn2)nc1Sc1ccc(F)cc1 | 5.48% (inactive) |
| CCOC(=O)c1cnc(-n2nc(C)cc2C)nc1NC1CCCCC1 | 3.66% (inactive) |
| Cc1nnc(NC(=O)C2C3C=CC(O3)C2C(=O)O)s1 (stereo not given) | 22.3% |
| COc1cnc(-c2ccccn2)nc1Sc1cccc(Cl)c1 | 4.14% (inactive) |
| Nc1nc(-c2ccccn2)nc(N)c1Cc1ccc(Cl)cc1Cl | 2.71% (inactive) |
| CC(C)(CS(=O)(=O)[O-])NC(=O)CC[N+](C)(C)CCO | 0.86% (inactive) |
| Oc1ccc(/C=N/Nc2cc(N3CCOCC3)nc(N3CCOCC3)n2)c(O)c1 | 11.4% (inactive) |
| COc1ccc(Cl)cc1C(=O)Nc1cccc(-c2ccc3nncn3n2)c1 | -0.16% (inactive) |
| CCOC(=O)c1cnc(-n2cc(C)cn2)nc1NCc1ccc2c(c1)OCO2 | 2.2% (inactive) |
| CCCCN(CC)c1nc(N)c2c(N)nc(OCC)cc2c1C#N | 0.32% (inactive) |
| c1ccc(-c2nccc(-c3ccc(-n4cnc5ccccc54)cc3)n2)nc1 | 6.97% (inactive) |
| COc1ccc(Cn2c(N)c(C(=O)NCc3ccco3)c3nc4ccccc4nc32)cc1OC | 2.29% (inactive) |
| O=C(Nc1nc(-c2ccccn2)cs1)C1CC(=O)N(c2ccc3c(c2)OCCO3)C1 (stereo not given) | 2.9% (inactive) |
| O=C(O)c1n[nH]nc1-c1ccccc1 | 53.4% |
| O=C(NC1(O)C(=O)c2ccccc2C1=O)c1ccc(C(F)(F)F)cc1 | 11.6% (inactive) |
| CCOC(=O)C1=C(C)OC2(O)c3ccccc3C(=O)C12O (stereo not given) | 11.2% (inactive) |
| COc1cnc(-c2ccccn2)nc1Sc1ccccc1 | 3.72% (inactive) |
| Oc1cccc(/C=N/Nc2cc(N3CCCC3)nc(N3CCCC3)n2)c1 | 9.26% (inactive) |
| N#Cc1c(N2CCCC(O)C2)nc(N)c2c(N)nc3c(c12)CC(=O)N3C12CC3CC(CC(C3)C1)C2 (stereo not given) | 2.54% (inactive) |
| O=c1[nH]c(Nc2ccccc2)cc2ccccc12 | 4.67% (inactive) |

| SMILES | inhibition |
| --- | --- |
| CCOC(=O)c1nn(-c2ccc(C)cc2)c(=O)c2c(N)scc12 | -0.12% (inactive) |
| O=C(O)c1cc(-c2ccc(Cl)cc2)n(-c2cccc(Cl)c2)n1 | -5.16% (inactive) |
| O=C(NC1(O)C(=O)c2ccccc2C1=O)c1c(Cl)cccc1Cl | 8.39% (inactive) |
| CCOc1ccc(NC(=S)Nc2ccc3nsnc3c2)cc1 | 3.93% (inactive) |
| COc1cnc(-c2ccccn2)nc1Sc1ccc(C)cc1 | 2.23% (inactive) |
| O=C(O)C1C2CCC(O2)C1C(=O)NC1CCCCC1 (stereo not given) | 42.5% |
| O=C(O)c1cc(-c2ccc(Cl)c(Cl)c2)n(-c2ccccc2)n1 | -2.01% (inactive) |
| COc1cnc(-c2ccccn2)nc1Oc1cccc(Cl)c1 | 0.53% (inactive) |
| c1ccc(Nc2nc(-c3ccccn3)cs2)cc1 | 2.82% (inactive) |
| COc1ccccc1Sc1nc(-c2ccccn2)ncc1OC | -3.47% (inactive) |
| CC(=O)C(C(C)=O)C1(O)C(=O)c2ccccc2C1=O | 6.75% (inactive) |
| O=C(NC1(O)C(=O)c2ccccc2C1=O)c1ccccc1 | 4.22% (inactive) |
| COc1cnc(-c2ccccn2)nc1Sc1ccccc1Cl | 3.05% (inactive) |
| CCOC(=O)c1sc2nc3c(SCC(=O)O)cc(C(=O)c4cc(F)ccc4O)cn3c(=O)c2c1C | -0.13% (inactive) |
| Nc1cc2nsnc2cc1Br | 0.76% (inactive) |
| COc1ccc(NC(=S)Nc2ccc3nsnc3c2)cc1 | 2.75% (inactive) |
| COc1ccc(OCCCC(=O)Nc2nc(-c3ccccn3)cs2)cc1 | 5.93% (inactive) |
| Cc1ccc(C(=O)NNc2cc(N3CCCC3)nc(N3CCCC3)n2)cc1 | 8.52% (inactive) |
| O=C(O)c1cc(-c2ccc(Cl)c(Cl)c2)n(-c2ccc(F)cc2)n1 | -3.2% (inactive) |
| O=C1Nc2ccccc2N2CCCC12 (stereo not given) | -3.11% (inactive) |
| Clc1ccc(-n2nnnc2-c2cnc(-c3ccccn3)nc2-c2cccs2)cc1 | -2.47% (inactive) |
| O=C1CCCC2=C1C1(O)C(=O)c3ccccc3C1(O)O2 (stereo not given) | 9.53% (inactive) |

| SMILES | inhibition |
| --- | --- |
| COc1ccc(CN2C(=O)Cc3c2nc(N)c2c(N)nc(N4CCCCC4)c(C#N)c32)cc1 | 1.97% (inactive) |
| COc1cnc(-c2ccccn2)nc1Sc1ccc(Cl)cc1 | 4.61% (inactive) |
| CCOC(=O)c1sc(N2C(=O)C(O)=C(C(=O)c3ccco3)C2c2cccc([N+](=O)[O-])c2)nc1C (stereo not given) | -2.08% (inactive) |
| CCOC(=O)c1cnc(-n2nc(C)cc2C)nc1NCCc1ccccc1 | 6.83% (inactive) |
| COc1ccc(NC(=O)C2C3CCC(O3)C2C(=O)O)c(OC)c1 (stereo not given) | 51.1% |
| O=S(=O)(Cc1cc(NCc2ccccc2)nc(-c2ccccn2)n1)c1ccccc1 | 4.59% (inactive) |
| CCOC(=O)c1cnc(-n2nc(C)cc2C)nc1NC(C)c1ccccc1 (stereo not given) | 5.83% (inactive) |
| CCn1c2ccccc2c2cc(NC(=O)COC(=O)c3ccc(NC(=O)CC#N)cc3)ccc21 | -3.03% (inactive) |
| CN1CCN(C(c2ccccn2)c2cc(Cl)c3cccnc3c2O)CC1 (stereo not given) | 8.11% (inactive) |
| COc1ccc(C(=O)c2nccc3cc(OC)c(OC)cc23)cc1OC | 2.42% (inactive) |
| COc1ccc(Sc2nc(-c3ccccn3)ncc2OC)cc1 | 3.64% (inactive) |
| CCCCn1c(NC(=O)c2ccco2)c(C(=O)OCC)c2nc3ccccc3nc21 | 2.48% (inactive) |
| CCCN(CC1CC1)c1nc(N)c2c(N)nc(OC)cc2c1C#N | 2.08% (inactive) |
| CCOC(=O)c1cnc(-n2nc(C)cc2C)nc1NCc1ccccc1 | 3.84% (inactive) |
| Cc1cc(C)c(S(=O)(=O)/N=C2\C=C(Sc3ncn[nH]3)C(=O)c3ccccc32)cc1C | 4.08% (inactive) |
| Cc1ccc(C(=O)NC2(O)C(=O)c3ccccc3C2=O)cc1C | 6.31% (inactive) |
| COc1cc(Br)c(C(=O)c2nccc3cc(OC)c(OC)cc23)cc1OC | 1.12% (inactive) |
| N#Cc1c(-c2ccc(Cl)cc2)cc(-c2cccs2)nc1SCC(=O)O | -2.49% (inactive) |
| COc1ccc2c(Cl)c(C(=O)N/N=C/c3ccc4c(c3)OCO4)sc2c1 | -2.37% (inactive) |
| COc1cnc(-c2ccccn2)nc1Oc1cccc(C(F)(F)F)c1 | -5.73% (inactive) |
| Cc1[nH]n(-c2ccccc2)c(=O)c1C(c1ccc([N+](=O)[O-])cc1)c1c(C)[nH]n(-c2ccccc2)c1=O | -3.88% (inactive) |
